# From patent US9206123B2, “Prodrugs of inhibitors of plasma kallikrein” (ActiveSite Pharmaceuticals, Inc., priority 2009, dated 2015)
# “Also recorded” adds a separate entry of the source. Non-standard residues stand in square brackets, D forms with d. *: point of attachment. CH2Cl = ClC*
# Key:
# [1] = test system: retinal vascular permeability; conditions: angiotensin-II-treated rodents; Phipps et al. 2009; cited from earlier work
# hemorrhagic stroke = conditions: model of hemorrhagic stroke; cited from earlier work
# ischemic stroke = conditions: rat model of ischemic stroke; cited from earlier work
# [2] = test system: retinal vascular permeability; experiment: Angiotensin-II infusion model, retinal vascular permeability by vitreous fluorescein fluorophotometry; format: in vivo, Sprague-Dawley rats; conditions: twice-daily oral gavage for five days
# Description: Continuous infusion of the vasoconstrictor peptide angiotensin-II in Sprague-Dawley rats over 3-7 days using subcutaneously implanted Alzet minipumps results in elevated blood pressure, and is accompanied by increased retinal vascular permeability, which can be measured using the technique of vitreous fluorescein fluorophotometry, as described in the prior art (Clermont, A. C., et al (2006) Invest Ophthalmol V is Sci.; 47: 2701-8). […] Inhibition of the excess retinal vascular permeability in this animal model following administration of compounds of the present invention via oral, subcutaneous, topical or intravitreal routes thus provides evidence of inhibition of plasma kallikrein in vivo.
# [3] = target: T1, Human plasma kallikrein (PK) (Homo sapiens, UniProt P03952); experiment: Human plasma kallikrein (PK) enzymatic inhibition assay, substrate H-D-Pro-Phe-Arg-pNA; format: biochemical; conditions: corrected Ki from Ki,app; 2 nM PK, 0.05 M HEPES pH 7.5, Km 0.33 mM
# T1 construct: purchased Enzyme Research Laboratories (Gary, Ind.)
# Method: Human plasma kallikrein (PK) was obtained from Enzyme Research Laboratories (Gary, Ind.). The enzymatic activity of PK was assayed using the synthetic peptide substrate H-D-Pro-Phe-Arg-pNA (Bachem, Peninsula City, Calif.) with the cleavage of the substrate by the enzyme resulting in an increase in A405, measured using a Molecular Devices Vmax Kinetic Microplate Reader. The uninhibited (control) activity of PK was determined by adding 190 μl of PK solution (2 nM in 0.05 M HEPES, pH 7.5, 0.01% Triton X-100) to 10 μl of H-D-Pro-Phe-Arg-pNA (2 mM in DMSO) in individual microtiter plate wells, mixed immediately by shaking, and the rate of increase in absorbance at 405 nm (A405) determined over 120-180 sec. In parallel, compounds of general formula V were mixed in separate wells with the synthetic substrate to attain final concentrations of between 0.01-10 μM in the final 200 μl reaction mixture, and the reaction initiated by the addition of 190 μl of the PK solution. A diminished rate of cleavage in the presence of a compound of general formula V denotes inhibition of PK activity, and the apparent inhibition constant (Ki,app) of the interaction can be determined by using the following equation— Ki,app=[I]/(PKControl/PKI−1) where [I]=concentration of inhibitory compound, PKcontrol=rate of substrate cleavage by uninhibited PK, PKI=rate of substrate cleavage by PK in the presence of inhibitory compound.
# The corrected Ki of the interaction can be obtained as follows from the calculated Ki,app— Ki=Ki,app/([S]/Km+1) Where [S]=concentration of synthetic substrate, and Km=Michaelis constant of synthetic substrate for PK, in this case determined experimentally to be 0.33 mM under these conditions.
# arthritis = conditions: rat models of arthritis; cited from earlier work
# hereditary angioedema = conditions: patients with hereditary angioedema; cited from earlier work
# sepsis [4] = conditions: LPS or bacterial induced sepsis in animals; cited from earlier work
# sepsis [5] = conditions: sepsis patients; cited from earlier work
# [6] = test system: middle cerebral artery occlusion; conditions: mouse model of middle cerebral artery occlusion; cited from earlier work
# T1 sequence (P03952 391-638 limits assumed): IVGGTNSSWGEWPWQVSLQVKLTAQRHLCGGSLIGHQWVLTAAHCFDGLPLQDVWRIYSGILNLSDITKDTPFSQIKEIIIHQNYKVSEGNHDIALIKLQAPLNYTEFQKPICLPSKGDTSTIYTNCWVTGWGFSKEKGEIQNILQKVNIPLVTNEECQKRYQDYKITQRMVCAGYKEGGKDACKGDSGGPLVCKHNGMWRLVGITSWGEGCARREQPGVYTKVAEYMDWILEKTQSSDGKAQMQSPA
# T1 sequence (P03952 20-390 partner limits assumed): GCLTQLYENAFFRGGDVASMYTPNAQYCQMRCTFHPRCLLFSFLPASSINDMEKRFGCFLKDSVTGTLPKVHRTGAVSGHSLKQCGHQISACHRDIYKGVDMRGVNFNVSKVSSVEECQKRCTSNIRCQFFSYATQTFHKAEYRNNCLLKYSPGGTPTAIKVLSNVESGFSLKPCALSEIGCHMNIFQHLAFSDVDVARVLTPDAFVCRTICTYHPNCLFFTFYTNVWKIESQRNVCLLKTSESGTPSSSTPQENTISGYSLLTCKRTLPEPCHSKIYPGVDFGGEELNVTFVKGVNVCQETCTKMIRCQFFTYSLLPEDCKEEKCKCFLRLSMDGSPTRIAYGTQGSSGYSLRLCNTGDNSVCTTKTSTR
molecule,measurement,setting,value
N=C(N)c1ccc(CNC(=O)c2cnn(Cc3ccccc3)c2)cc1 [ASP-440],effect on retinal vascular permeability,[1],reduce retinal vascular permeability; also recorded: effective in reducing retinal vascular permeability
same,effect on expansion of intracerebral hemorrhage,hemorrhagic stroke,reduce
same,effect on infarction volume and cerebrovascular edema,ischemic stroke,reduce infarction volume and cerebrovascular edema
"COC(=O)/N=C(\N)c1ccc(CNC(=O)c2cc(C)n(-c3ccc(F)cc3)c2C)cc1 [Example 4, (Z)-methyl amino-(4-((1-(4-fluorophenyl)-2,5-dimethyl-pyrrole-3-carbonylamino)methyl)phenyl)methylenecarbamate]",reduction of retinal vascular permeability,[2],55%
"Cc1cc(C(=O)NCc2ccc(C(=N)N)cc2)c(C)n1-c1ccc(F)cc1 [Example 11, N-[(4-carbamimidoylphenyl)methyl]-1-(4-fluorophenyl)-2,5-dimethyl-pyrrole-3-carboxamide]",Ki,[3],0.013 µM
"Cc1cc(C(=O)NCc2ccc(C(=N)N)cc2)c(C)n1-c1ccc(Cl)cc1 [Example 12, N-[(4-carbamimidoylphenyl)methyl]-1-(4-chlorophenyl)-2,5-dimethyl-pyrrole-3-carboxamide]",Ki,[3],0.007 µM
"COc1ccc(-n2c(C)cc(C(=O)NCc3ccc(C(=N)N)cc3)c2C)cc1 [Example 13, N-[(4-carbamimidoylphenyl)methyl]-1-(4-methoxyphenyl)-2,5-dimethyl-pyrrole-3-carboxamide]",Ki,[3],0.017 µM
"Cc1cc(C(=O)NCc2ccc(C(=N)N)cc2)c(C)n1-c1ccc2c(c1)OCCO2 [N-[(4-carbamimidoylphenyl)methyl]-1-(2,3-dihydro-1,4-benzodioxin-6-yl)-2,5-dimethyl-pyrrole-3-carboxamide]",Ki,[3],0.014 µM
"Cc1cc(C(=O)NCc2ccc(C(=N)N)cc2)c(C)n1-c1ccccn1 [N-[(4-carbamimidoylphenyl)methyl]-2,5-dimethyl-1-(2-pyridyl)pyrrole-3-carboxamide]",Ki,[3],0.035 µM
"Cc1cc(C(=O)NCc2ccc(C(=N)N)cc2)c(C)n1-c1cccnc1 [N-[(4-carbamimidoylphenyl)methyl]-2,5-dimethyl-1-(3-pyridyl)pyrrole-3-carboxamide]",Ki,[3],0.046 µM
"Cc1cc(C(=O)NCc2ccc(C(=N)N)cc2)c(C)n1-c1nccs1 [N-[(4-carbamimidoylphenyl)methyl]-2,5-dimethyl-1-thiazol-2-yl-pyrrole-3-carboxamide]",Ki,[3],0.068 µM
Cl.NCC1CCC(C(=O)N[C@@H](Cc2ccccc2)C(=O)Nc2ccc(CC(=O)O)cc2)CC1 (stereo partly drawn) [PKSI-527],effect on joint swelling,arthritis,reduce joint swelling
NC(N)=NCCC[C@@H](N)C(=O)N[C@@H](CCCN=C(N)N)C(=O)N1CCC[C@H]1C(=O)N1C[C@H](O)C[C@H]1C(=O)NCC(=O)N[C@@H](Cc1cccs1)C(=O)N[C@@H](CO)C(=O)N1Cc2ccccc2C[C@@H]1C(=O)N1[C@H](C(=O)N[C@@H](CCCN=C(N)N)C(=O)O)C[C@@H]2CCCC[C@@H]21 [icatibant],effect on edema / hereditary angioedema,hereditary angioedema,effective in treating hereditary angioedema
H-[dP]-Phe-Arg-CH2Cl [reference compound],effect on vascular permeability and lesions,sepsis [4],reduce vascular permeability in multiple organs and reduce lesions
Hoe-140,effect on retinal vascular permeability,[1],reduce retinal vascular permeability
"C1-INH: the major endogenous inhibitor of PK (protein, UniProt P05155 23-500, looked up) Plasma protease C1 inhibitor: NPNATSSSSQDPESLQDRGEGKVATTVISKMLFVEPILEVSSLPTTNSTTNSATKITANTTDEPTTQPTTEPTTQPTIQPTQPTTQLPTDSPTQPTTGSFCPGPVTLCSDLESHSTEAVLGDALVDFSLKLYHAFSAMKKVETNMAFSPFSIASLLTQVLLGAGENTKTNLESILSYPKDFTCVHQALKGFTTKGVTSVSQIFHSPDLAIRDTFVNASRTLYSSSPRVLSNNSDANLELINTWVAKNTNNKISRLLDSLPSDTRLVLLNAIYLSAKWKTTFDPKKTRMEPFHFKNSVIKVPMMNSKKYPVAHFIDQTLKAKVGQLQLSHNLSLVILVPQNLKHRLEDMEQALSPSVFKAIMEKLEMSKFQPTLLTLPRIKVTTSQDMLSIMEKLEFFDFSYDLNLCGLTEDPDLQVSAMQHQTVLELTETGVEAAAASAISVARTLLVFEVQQPFLFVLWDQQHKFPVFMGRVYDPRA",clinical outcome,sepsis [5],Clinical improvement
same,effect on infarct size,[6],reduced infarct size
same,effect on vascular permeability and lesions,sepsis [4],reduce vascular permeability in multiple organs and reduce lesions
